# From patent US8106056B2, “Combination preparations comprising bifeprunox and a dopamine agonist” (Solvay Pharmaceuticals B.V., priority 2006, dated 2012)
# “Also recorded” adds a separate entry of the source.
# Key:
# [1] = system: MPTP-treated common marmosets; assay: Locomotor activity in MPTP-treated common marmosets (automated activity cages); type: in vivo, common marmosets (Callithrix jacchus)
# Procedure: (§1) These animals were L-DOPA responsive and not test drug naive. They had not been experimentally primed for dyskinesia although some dyskinesia was present.
# (§2) Drug treatment: Bifeprunox mesylate was suspended in 10% sucrose solution and administered orally by gavage in a volume of 2.0 ml/kg. L-DOPA: L-3,4-Dihydroxyphenylalanine (L-dopa) methylester (Sigma Chemical Co, UK) was dissolved in 10% sucrose solution and administered orally by gavage in a volume of 2.0 ml/kg. Carbidopa: (Merck, Sharp and Dohme, UK) was administered orally as a suspension in 10% sucrose solution in a volume of 2.0 ml/kg. Domperidone: (2.0 mg/kg po, Sigma UK) was dissolved in 10% sucrose and administered 60 min prior to bifeprunox in a volume of 2.0 ml/kg, Bifeprunox (4 or 8 mg/kg po free base) or its vehicle (10% sucrose) was administered alone and in combination with L-DOPA (7.5 mg/kg po free base, given in combination with carbidopa, 12.5 mg/kg po) to MPTP-treated marmosets (n=6). Animals were treated with bifeprunox or its vehicle 90 min prior to administration of L-DOPA or its vehicle administration. Carbidopa was administered 30 minutes prior to administration of L-DOPA. Domperidone was administered 60 min prior to bifeprunox administration.
# Behavioral Studies: In all studies, animals were acclimatised to behavioral study cages for 1 hour prior to treatment. The animals were placed individually into activity cages (50×60×70 cm) fitted with a clear perspex door to allow clear visibility for observation. Each cage was equipped with 8 horizontally orientated infrared photocell emitters and their corresponding detectors arranged so as to permit maximum assessment of movement. Locomotor activity was assessed as the number of light beam interruptions caused by movement of the animals accumulated in 10-minute intervals for up to 7 hours. The animals were allowed a 60-minute acclimatisation period in the activity cages during which baseline activity was assessed, before drug administration. ‘On’ Threshold was defined as 3 times baseline activity in MPTP-treated marmosets. Hyperactivity was defined as 3 times normal activity in naive marmosets. ‘On’ time was the period of time in minutes that activity was above the ‘On’ Threshold. Animals were treated with bifeprunox, vehicle and/or L-DOPA. Following drug treatment, animals were assessed for locomotor activity and disability as described below for up to 6 h following drug administration. The animals used in the study were in the automated activity cages for no longer than 8 h on any study day, and were allowed at least 3 days recovery period between drug treatments to ensure appropriate animal welfare consideration. The locomotor activity, motor disability and presence of dyskinesia were assessed as follows:
# Locomotor Activity: In all studies the animals were acclimatised to behavioral study cages for 1 hour prior to bifeprunox treatment. Animals were then treated with appropriate drugs. Following treatment, animals were assessed for antiparkinsonian activity for up to 6 h using automated activity cages and by the rating of disability by an observer blinded to the treatment.
# (§3) Data and Statistical Analysis: Data are presented as median locomotor activity (counts/30 min) or disability score (score over 10 min/30 min) over the 7 hour period of the experiment, or as total locomotor activity (counts/420 min) or disability (total score over 420 min). Data were analysed by Kruskall Wallis ANOVA and post-hoc Man-Whitney test where appropriate. Analyses were corrected for multiple comparisons using the formula: Acceptable probability=α/number of comparisons where α=5% A separate group of animals from those used in the study were treated with vehicle and were used for statistical comparison.
# [2] = system: MPTP-treated common marmosets; assay: Disability rating in MPTP-treated common marmosets; type: in vivo, common marmosets (Callithrix jacchus)
# Procedure: as §1, §2
# Disability and dyskinesia scores: Disability and dyskinesia was assessed before, and during the last 10 minutes in every 30 min period after bifeprunox administration for up to 6 hours following drug treatment. The following disability rating scales were used:
# Rating of disability: The disability of animals was scored as follows; alertness (normal 0, sleepy 2); reaction (normal 0, reduced 1, slow 2, absent 3); checking movements (present 0, reduced 1, absent 2); attention and eye movements (normal 0, abnormal 1); posture (normal 0, abnormal trunk+1, abnormal limbs+1, abnormal tail+1, or grossly abnormal 4); balance/co-ordination (normal 0, impaired 1, unstable 2, spontaneous falls 3); vocalisation (normal 0, reduced 1, absent 2); motility (normal 0, bradykinesia/hyperkinesia 1, akinesia/hyperkinesia 2). Sedation was noted if present.
# as §3
# [3] = system: dopamine D2/3 receptors; conditions: cited from earlier work
# [4] = target: T1, serotonin 5-HT1A receptors (Homo sapiens, UniProt P08908); conditions: cited from earlier work
# T1 sequence (P08908 1-422): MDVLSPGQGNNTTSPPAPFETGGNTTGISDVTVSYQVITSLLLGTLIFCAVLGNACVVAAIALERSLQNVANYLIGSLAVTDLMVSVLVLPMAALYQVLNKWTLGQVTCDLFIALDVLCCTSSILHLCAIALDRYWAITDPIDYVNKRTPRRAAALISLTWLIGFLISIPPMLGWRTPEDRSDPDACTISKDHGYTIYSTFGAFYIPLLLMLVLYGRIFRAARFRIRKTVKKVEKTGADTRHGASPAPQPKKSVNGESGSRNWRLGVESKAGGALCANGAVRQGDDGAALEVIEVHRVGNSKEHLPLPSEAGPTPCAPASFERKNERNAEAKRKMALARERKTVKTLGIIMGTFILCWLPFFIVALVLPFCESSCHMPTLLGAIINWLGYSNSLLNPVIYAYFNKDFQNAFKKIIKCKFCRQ
# [5] = L-DOPA 7.5 mg/kg po plus carbidopa 12.5 mg/kg po 30 min prior
# [6] = bifeprunox 4 mg/kg po 90 min prior to L-DOPA 7.5 mg/kg po plus carbidopa 12.5 mg/kg po
# [7] = bifeprunox 4 mg/kg po alone, p<0.05, Mann Whitney
# [8] = bifeprunox 8 mg/kg po 90 min prior to L-DOPA 7.5 mg/kg po plus carbidopa 12.5 mg/kg po
# [9] = bifeprunox 8 mg/kg po alone, p<0.05, Mann Whitney
compound,measurement,setting,value
"N[C@@H](Cc1ccc(O)c(O)c1)C(=O)O [L-DOPA, L-3,4-Dihydroxyphenylalanine, reference compound]",locomotor activity compared to vehicle administration,[1]; [5],increased
same,median duration of activity (locomotor On-Time),[1]; [5],180 min/420 min
same,Total locomotor activity and locomotor 'on-time' versus vehicle,"[1]; L-DOPA 7.5 mg/kg po plus carbidopa 12.5 mg/kg po, p<0.05, Mann Whitney",greater than vehicle-treated animals
same,disability 'On-Time',[2]; [5],120 min/420 min
same,time at which peak disability score was reached after administration (median),[2]; [5],75 min
same,disability scores compared to vehicle administration,"[2]; L-DOPA 7.5 mg/kg po plus carbidopa 12.5 mg/kg po 30 min prior, p<0.05, Mann Whitney",decreased
"O=c1[nH]c2cccc(N3CCN(Cc4cccc(-c5ccccc5)c4)CC3)c2o1 [bifeprunox, 7-[4-([1,1′-biphenyl]-3-ylmethyl)-1-piperazinyl]-2(3H)-benzoxazolone]",Locomotor activity compared to L-DOPA alone and bifeprunox (4 mg/kg po) alone,[1]; [6],tended to increase
same,locomotor On-Time compared to the single treatments,[1]; [6],slightly greater than that seen after L-DOPA alone and bifeprunox
same,locomotor activity compared to baseline,[1]; [6],increased
same,median duration of activity (locomotor On-Time),[1]; [6],390 min/420 min
same,locomotor activity compared to vehicle administration,[1]; bifeprunox 4 mg/kg po alone,increased
same,median duration of activity (locomotor On-Time),[1]; bifeprunox 4 mg/kg po alone,240 min/420 min
same,Total locomotor activity and locomotor 'On-Time' versus vehicle,[1]; [7],greater than in vehicle-treated animals
same,Total locomotor activity and duration of activity (On-time) compared to bifeprunox (8 mg/kg po) alone and L-DOPA plus carbidopa alone,[1]; [8],not different
same,locomotor On-Time compared to bifeprunox alone,[1]; [8],slightly shorter than bifeprunox alone
same,locomotor activity compared to baseline,[1]; [8],increased
same,median duration of activity (locomotor On-Time),[1]; [8],300 min/420 min
same,locomotor activity compared to vehicle administration,[1]; bifeprunox 8 mg/kg po alone,increased
same,median duration of activity (locomotor On-Time),[1]; bifeprunox 8 mg/kg po alone,345 min/420 min
same,Total locomotor activity versus vehicle,[1]; [9],greater than vehicle-treated animals
same,total locomotor activity and locomotor 'On-Time' compared to L-DOPA alone,[1]; bifeprunox 4 or 8 mg/kg po given in combination with L-DOPA,tended to increase
same,duration of activity ('on'-time) following L-DOPA,[1]; co-administration with L-DOPA,increased
same,peak locomotor activity as observed after L-DOPA alone,"[1]; combined treatment with L-DOPA, hyperactivity was not observed",reduced
same,Duration of activity (disability On-Time),[2]; [6],360 min/420 min
same,Duration of activity (disability On-Time) compared to bifeprunox alone,[2]; [6],tended to increase
same,disability scores over the period of the study,[2]; [6],decreased
same,Median duration of activity (disability On-Time),[2]; bifeprunox 4 mg/kg po alone,210 min/420 min
same,disability scores compared to vehicle administration,[2]; [7],decreased
same,Duration of activity (disability On-Time),[2]; [8],165 min/420 min
same,Duration of activity (disability On-Time) compared to bifeprunox (8 mg/kg po) alone or L-DOPA plus carbidopa,[2]; [8],not different
same,disability scores,[2]; [8],decreased
same,Duration of activity (disability On-Time),[2]; bifeprunox 8 mg/kg po alone,225 min/420 min
same,Total decrease in disability versus vehicle,[2]; bifeprunox 8 mg/kg po alone,lower than vehicle-treated animals
same,disability scores compared to vehicle treatment,[2]; [9],decreased
same,functional activity at dopamine D2/3 receptors,[3],partial agonist
same,functional activity at serotonin 5-HT1A receptors,[4],partial agonist; also recorded: full agonism
